{"source": "patent US10857180B2", "about": "“Pharmaceutical composition for improving health, cure abnormalities and degenerative disease, achieve anti-aging effect of therapy and therapeutic effect on mammals and method thereof” (priority 2014, dated 2020)", "key": {"[1]": {"tested_on": "renal cell carcinoma (PA) cells", "test": "Transformation of PA tumor cells into type A/B cells (trypan blue)", "type": "cell-based, rat", "settings": "for concentration of cells of type A at first calculation: 10 hours after start, both concentration models; for time for 80% of the transformation into phenotype A: total time 140 hours", "from_the_text": "Staining of Cell Suspension with Trypan Blue and Visual Control of Changes in the Shape, Color and Size of the Cells will now be discussed. The visual control method was based on the observation of state of the plasma membrane permeability after the action of materials under study, and reflects the degree of membrane's damage, making it possible to estimate an ability of nuclear proteins to absorb the dye.\nTo make the analysis, the cell suspension, after it was exposed to the action of materials, in a volume of 20 mcl was mixed with 20 mcl of trypan blue solution and resuspended. The obtained solution was placed in a hemocytometer chamber for visual analysis and quantitative estimation of the cells. To make the quantitative estimation of the cells, they were separated from the substrate using Versene solution and counted by staining cells with trypan. A change in the color of a cell was indicative of the violation of intactness of the cell membrane, and the more pronounced was the coloration, the less viable the cell was. […] They are easily distinguishable from dark damaged cells and easily identified with ordinary light microscope.\nPrimary cell culture for our in vitro experiments was obtained by enzymatic treatment of tumor material (using trypsin solution) from a strain of renal cell carcinoma (PA) in a rat Visually (after its removal from the animal), the tumor looked as a nodular fleshy growth of a whitish-pink color of rather dense consistency, marginated from other tissues by a joint capsule. The main morphological signs of PA tumor in the animal can be described as follows. Small (1.5 to 2 grams) fragments without vessels and blastic lesions were excised aseptically from the surgically removed tumor and then cut them with scissors to smaller pieces of 0.2 to 0.3 mm in size and cultured in a solution of trypsin. The culture medium contained the following components: RPMI-1640 (Sigma, USA) as the base plus 10% newborn calf serum and 40 mcg/ml of gentamicin. Trypsinization was performed in a humidified atmosphere of 5% CO2 at 37° C. with constant mixing of the contents in a magnetic stirrer. The isolated cells were washed three times in a culture medium by centrifuging and before starting the experiment a quantitative assessment of cells was carried out in the Goryaev chamber with supravital staining of the cells with trypan blue.\nAnalysis of the effect of all components on the renal cell carcinoma (PA) was conducted to determine the relationship between the amount of the preparation (concentration characteristics of the component) and the quantitative characteristics of the cells. Assessment of the effect of the components was carried out on 2 concentration models with 30 and 300 thousand original tumor cells. After the cells were cultured, cell suspensions were prepared in the plates with the culture medium and an effect of the preparations (in various concentrations) on the tumor cells was assessed. The experiment was started with the concentration of 10 mg of the active substance per 1 ml of the solvent (saline with 5% glucose).\nThe amount of culture medium in each well was 200 mcl for 30 thousand cells and 2 ml for 300 thousand cells, respectively. The amounts of drugs (active substances) for 2 concentration models differed according to the amount of cells and culture medium, i.e., the amount of drug in the experiment with 300 thousand cells was ten times as large as compared with the same in the experiment with 30 thousand cells. The result of effects of the components is shown in FIGS. 22, 23 for light isotope components and in FIG. 25 for the elements with natural distribution of isotopes. Assessment of the effect of the components was performed by comparing the external factors of cells (color, size, shape) prior to the experiment and after staining. […]"}, "[2]": {"tested_on": "renal cell carcinoma (PA) cells", "test": "Immunocytochemistry (H-Score) of PA cells", "type": "cell-based, rat", "procedure": "When making the immunocytochemistry (ICC) assay, cells on microscope glasses (cytospin preparations) were fixed in the solution (methanol+acetone 1:1) for 2 hours at t 20° C. and incubated with 1% solution of bovine serum albumin (BSA) for 20 minutes. Then the monoclonal antibodies—CD44 (Diagnostic BioSystems), E-cadherin (ThermoScientific), N-cadherin (NeoMarker, BioLegend)—were applied for 60 minutes, after which the Poly Vue imaging system conjugated with peroxidase was used and the enzyme activity was detected using diaminobenzidine (ThermoScientific) as a substrate.\n(§1) After the immunocytochemical reaction the preparations were washed with water and counterstained with hematoxylin-eosin (for 15-30 seconds). The results were analyzed by counting cells with expression (brown colored cells), using a light microscope and were assessed using the classical H-Score method: S=1×A+2×B+3×C, where S is the H-Score index giving a range of 0 (protein is not detected) to 300 (high-level expression in 100% of the cells); A is the percentage of weakly stained cells, B is the percentage of moderately stained cells and C is the percentage of strongly stained cells."}, "[3]": {"tested_on": "human breast cancer (MCF-7 line) cells", "test": "Immunocytochemistry (H-Score) of MCF-7 cells", "type": "cell-based", "procedure": "When making the immunocytochemistry (ICC) assay, cells on microscope glasses (cytospin preparations) were fixed in the solution (methanol+acetone 1:1) for 2 hours at t 20° C. and incubated with 1% solution of bovine serum albumin (BSA) for 20 minutes. Then the monoclonal antibodies-CD44 (Diagnostic BioSystems), E-cadherin (ThermoScientific), N-cadherin (NeoMarker, BioLegend), SLUG (GeneTex)—were applied for the time period specified by the manufacturer (30 to 60 minutes), after which the Poly Vue imaging system conjugated with peroxidase was used and the enzyme activity was detected using diaminobenzidine (ThermoScientific) as a substrate. After the immunocytochemical reaction the preparations were washed with water and counterstained with hematoxylin-eosin (for 15 to 30 seconds).\nas §1, with “The” for “After the immunocytochemical reaction the preparations were washed with water and counterstained with hematoxylin-eosin (for 15-30 seconds). The”, “cells)” for “cells),”, “microscope,” for “microscope”, “staining” for “stained”"}, "[4]": {"tested_on": "COLO 205 cell line", "test": "Cytogenetic analysis (micronucleus test) of COLO 205 cells", "type": "cell-based, human", "settings": "^39K 2 mg/ml, ^64Zn 20 mcg/ml, ^24Mg 4 mg/ml", "procedure": "Advanced Micronucleus Test was used to assess the cytogenetic characteristics of cells after their exposure to the action of the test group of components.\nCytogenetic analysis was carried out after 48 hours of exposure of the cells to the action of the components. For cytogenetic analysis, the cells were incubated in hypotonic solution KCl (0.54%) (Reahim, Ukraine) for 40 minutes at +37° C. Then they were fixed with a mixture of methyl alcohol (Reahim, Ukraine) and acetic acid (Himlaborreaktiv, Ukraine) (3:1) with replacing the fixative three times. All fixed cell suspensions were applied on cold wet glasses, dried and stained with Giemsa stain (Sigma, Germany). The cytogenetic preparations were analyzed using a binocular microscope Sari Zeiss, AxioStarPlus (Germany) with magnification of x 1000. The following quantitative characteristics and stages of cell division were analyzed on the preparations: mitoses, cells with premature chromosome condensation (PCC), cells with micronuclei (CMN), apoptotic cells and cells with nuclear protrusions (protrusions) which were calculated for 1000 cells and expressed in per mille (%)."}, "[5]": {"tested_on": "stem cells derived from rat fibroblasts (RF)", "type": "cell-based"}, "[6]": {"settings": "dose not stated, 72 hours in the control"}}, "note": "Read-outs that look alike come from different tables or passages of the source."}
{"smiles": "O=S(=O)([O-])[O-].[24Mg+2]", "note": "[^24Mg]", "values": [{"measurement": "concentration of cells of type A at first calculation", "setting": "[1]", "value": 100, "unit": "%"}, {"measurement": "cells of type A", "setting": "[1]; ^24Mg 0.4 mg/ml", "value": "about 5%"}, {"measurement": "cells of type A", "setting": "[1]; ^24Mg 2 mg/ml", "value": 25, "unit": "%"}, {"measurement": "cells of type B", "setting": "[1]; ^24Mg 2 mg/ml", "value": 75, "unit": "%"}, {"measurement": "cells of type A", "setting": "[1]; ^24Mg 10 mg/ml", "value": 100, "unit": "%"}, {"measurement": "changes (cell transformation) in the first 10 hours", "setting": "[1]", "value": 62, "unit": "%"}, {"measurement": "time for 80% of the transformation into phenotype A", "setting": "[1]", "value": "≤ 45", "unit": "h"}, {"measurement": "number of CD44-positive cells", "setting": "[2]; ^24Mg 2 mg/ml", "value": "did not differ from that of control cells"}, {"measurement": "number of CD44-positive cells", "setting": "[2]; ^24Mg 3.5 mg/ml", "value": "increase significantly"}, {"measurement": "number of E-cadherin-positive cells", "setting": "[2]; ^24Mg in 2 doses", "value": "increase in the number"}, {"measurement": "number of cells expressing N-cadherin", "setting": "[2]; ^24Mg in 2 doses", "value": "slight increase"}, {"measurement": "number of Slug-positive cells", "setting": "[3]", "value": "insignificantly influenced"}, {"measurement": "tumor proliferation (cell division) at the stage of G2/M", "setting": "[4]", "value": "inhibition of tumor proliferation"}, {"measurement": "time of restoration of the cell monolayer", "setting": "[5]; ^24Mg 2 mg/ml", "value": 72, "unit": "h"}, {"measurement": "time of restoration of the cell monolayer", "setting": "[5]; ^24Mg 3 mg/ml", "value": "65 to 72", "unit": "h"}, {"measurement": "time of restoration of the cell monolayer", "setting": "[5]; ^24Mg 4 mg/ml", "value": 82, "unit": "h"}]}
{"smiles": "[39K+].[Cl-]", "note": "[^39K]", "values": [{"measurement": "time of transformation of 100% initial tumor cells into phenotype A", "setting": "[1]", "value": 80, "unit": "h"}, {"measurement": "concentration of cells of type A at first calculation", "setting": "[1]", "value": 100, "unit": "%"}, {"measurement": "A cells", "setting": "[1]; ^39K 2 mg/ml", "value": "About 50%"}, {"measurement": "cells of type A", "setting": "[1]; ^39K 10 mg/ml", "value": 100, "unit": "%"}, {"measurement": "changes (cell transformation) in the first 10 hours", "setting": "[1]", "value": 40, "unit": "%"}, {"measurement": "time for 80% of the transformation into phenotype A", "setting": "[1]", "value": "≤ 20", "unit": "h"}, {"measurement": "number of E-cadherin-positive cells", "setting": "[2]; ^39K 0.4 mg/ml", "value": "significantly increased"}, {"measurement": "number of E-cadherin-positive cells", "setting": "[2]; ^39K 2 mg/ml", "value": "significantly reduced"}, {"measurement": "number of CD44-positive cells", "setting": "[2]; ^39K both doses", "value": "significantly increased"}, {"measurement": "N-cadherin", "setting": "[2]; ^39K dose D2", "value": "almost complete inhibition"}, {"measurement": "number of Slug-positive cells", "setting": "[3]", "value": "insignificantly influenced"}, {"measurement": "tumor proliferation (cell division) at the stage of G2/M", "setting": "[4]", "value": "inhibition of tumor proliferation"}, {"measurement": "time of restoration of the cell monolayer", "setting": "[5]; ^39K 1 mg/ml", "value": 72, "unit": "h"}, {"measurement": "time of restoration of the cell monolayer", "setting": "[5]; ^39K 2 mg/ml", "value": 96, "unit": "h"}, {"measurement": "time of restoration of the cell monolayer", "setting": "[5]; [6]", "value": 72, "unit": "h"}]}
{"smiles": "O=S(=O)([O-])[O-].[64Zn+2]", "note": "[^64Zn]", "values": [{"measurement": "time of transformation of 100% initial tumor cells into phenotype A", "setting": "[1]", "value": "≤ 50", "unit": "h"}, {"measurement": "A cells", "setting": "[1]; ^64Zn 0.08 mg/ml", "value": 100, "unit": "%"}, {"measurement": "cells of type A", "setting": "[1]; ^64Zn 0.128 mg/ml", "value": "about 30%"}, {"measurement": "cells of type A obtainable with 1 microgram of ^64Zn sulfate", "setting": "[1]; assuming 50% of cells transformed", "value": 23438, "unit": "cells"}, {"measurement": "cells of type A obtainable with 1 microgram of ^64Zn sulfate", "setting": "[1]; assuming 100% transformation", "value": 938, "unit": "cells"}, {"measurement": "changes (cell transformation) in the first 10 hours", "setting": "[1]", "value": 80, "unit": "%"}, {"measurement": "time for 80% of the transformation into phenotype A", "setting": "[1]", "value": "≤ 10", "unit": "h"}, {"measurement": "CD44 marker positive cells, H-Score scale", "setting": "[2]; 3.2 mcg/ml", "value": 126, "unit": "units"}, {"measurement": "N-cadherin positive cells", "setting": "[2]; ^64Zn 0.128 mcg/ml", "value": "slight increase"}, {"measurement": "number of E-cadherin-positive cells", "setting": "[2]; ^64Zn 0.128 mcg/ml", "value": "increased number"}, {"measurement": "N-cadherin-positive cells", "setting": "[2]; ^64Zn 3.2 mcg/ml", "value": "substantial increase"}, {"measurement": "number of E-cadherin-positive cells", "setting": "[2]; ^64Zn 3.2 mcg/ml", "value": "decrease in the number"}, {"measurement": "number of Slug-positive cells", "setting": "[3]", "value": "insignificantly influenced"}, {"measurement": "tumor proliferation (cell division) at the stage of G2/M", "setting": "[4]", "value": "inhibition of tumor proliferation"}, {"measurement": "time of restoration of the cell monolayer", "setting": "[5]; [6]", "value": 72, "unit": "h"}]}
